Results from patent publication US10881110B2, “Herbicidal compositions comprising isoxazolo[5,4-b]pyridines” (BASF SE, priority 2014, dated 2021).

Assays:
Assay in all cases: greenhouse post-emergence herbicidal test
IPOHE = format: in vivo, Ipomoea hederacea; design: key to herbicidal activity against IPOHE found: rating on a scale from 0 to 100; conditions: post emergence
Outline: (§1)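 Post-emergence greenhouse test: plants in loamy sand, sprayed at 1–15 cm height with aqueous spray liquor from 10% emulsion concentrates, kept at 10-25 °C or 20-35 °C by species. Damage scored 0–100 (100 = complete destruction), usually 20 days after treatment. Expected additive effect E from Colby: E=X+Y−(X·Y/100).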

GALAP = format: in vivo, Galium aparine; design: key to herbicidal activity against GALAP found: rating on a scale from 0 to 100; conditions: post emergence
Outline: as §1

GERDI = format: in vivo, Geranium dissectum; design: key to herbicidal activity against GERDI found: rating on a scale from 0 to 100; conditions: post emergence
Outline: (§2)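 Post-emergence spray on 1–15 cm plants in medium loamy sand pots; actives as 10% w/w EC diluted in water. 10-25° C / 20-35° C per species. Visual score 20 d after treatment, 0 = no damage, 100 = full kill; Colby expected value E=X+Y−(X·Y/100).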

MATCH = format: in vivo, Matricaria recutita; conditions: Matricaria chamomilla, post-emergence, 480 h, post emergence; 15 g/ha a.i.; read-out: herbicidal activity against MATCH found
Outline: as §2

ALOMY = format: in vivo, Alopecurus myosuroides; design: key to herbicidal activity against ALOMY found: rating on a scale from 0 to 100; conditions: post emergence
Outline: as §2

STEME = format: in vivo, Stellaria media; design: key: scale 0 to 100
Protocol: (§3) The culture containers used were plastic pots containing medium loamy sand with approximately 4.6% of humus and 69.9% sand as substrate. The seeds of the test plants were sown separately for each species.
(§4) For the post-emergence treatment, the test plants were grown to a plant height of from 1 to 15 cm, depending on the plant habit, and only then treated with the active compounds which had been suspended or emulsified in water. To this end, the test plants were either sown directly, and grown in the same containers, or they were first grown separately as seedlings and transplanted into the test containers a few days prior to treatment.
(§5) Depending on the species, the plants were kept at 10-25° C. and 20-35° C., respectively.
(§6) The test period extended over 1 to 3 weeks. During this time, the plants were tended and their response to the individual treatments was evaluated 20 days after treatment except mentioned otherwise.
(§7) Evaluation was carried out using a scale from 0 to 100. 100 means no emergence of the plants, or complete destruction of at least the above-ground parts, and 0 means no damage or normal course of growth.
(§8) The respective stated components A and B, and, if appropriate, C, were formulated as a 10% by weight strength emulsion concentrate and, with addition of the amount of solvent system, introduced into the spray liquor used for applying the active compound. In the examples, the solvent used was water.
(§9) In the examples below, using the method of S. R. Colby (1967) “Calculating synergistic and antagonistic responses of herbicide combinations”, Weeds 15, p. 22 ff., the value E, which is expected if the activity of the individual active compounds is only additive, was calculated. E=X+Y−(X·Y/100)

ABUTH = format: in vivo, Abutilon theophrast; design: key to herbicidal activity against ABUTH found: rating on a scale from 0 to 100; conditions: post emergence
Outline: as §2

ERICA = format: in vivo, Conyza canadensis; design: key to herbicidal activity against ERICA found: rating on a scale from 0 to 100; conditions: post emergence
Outline: as §2

VIOAR = format: in vivo, Viola arvensis; design: key to herbicidal activity against VIOAR found / herbicidal activity against VIOLA found: rating on a scale from 0 to 100; conditions: post emergence
Outline: as §1

POLCO = format: in vivo, Polygonum convolvulus; design: key to herbicidal activity against POLCO found: rating on a scale from 0 to 100; conditions: post emergence
Outline: as §1

AMBEL = format: in vivo, Ambrosia artemisiifolia; design: key: rating on a scale from 0 to 100
Protocol: as §3, §4, §5, §6, §7, §8, §9

ECHCG = format: in vivo, Echinochloa crus-galli; design: key to herbicidal activity against ECHCG found / herbicidal activity against ECHCH found: scale 0 to 100; conditions: post emergence; I.1 31.25 g/ha, B.103 7.5 g/ha a.i.
Protocol: as §3, §4, §5, §6, §7, §8, §9

KCHSC = format: in vivo, Kochia scoparia; design: key to herbicidal activity against KCHSC found: rating on a scale from 0 to 100; conditions: post emergence
Outline: as §1

PAPRH = format: in vivo, Papaver rhoeas; design: key: rating on a scale from 0 to 100; conditions: B.103 15 g/ha a.i.
Outline: as §2

APESV = format: in vivo, Apera spica-venti; design: key to herbicidal activity against APESV found: rating on a scale from 0 to 100; conditions: single active, 4 g/ha a.i., post emergence
Outline: as §2

[1] = I.1 62.5 g/ha, B.89 25 g/ha a.i.
[2] = I.1 15.62 g/ha, B.89 25 g/ha a.i.
[3] = I.1 31.25 g/ha, B.89 25 g/ha a.i.
[4] = I.1 62.5 g/ha, B.89 12.5 g/ha a.i.
[5] = application rate a.i.: I.1 31.25 g/ha, B.100 (isoxaflutole) 12.5 g/ha, alone or as mixture (composition 1.100)
[6] = application rate a.i.: I.1 62.5 g/ha, B.100 (isoxaflutole) 12.5 g/ha, alone or as mixture (composition 1.100)
[7] = I.1 31.25 g/ha, B.103 7.5 g/ha a.i.
[8] = I.1 31.25 g/ha, B.103 15 g/ha a.i.
[9] = I.1 62.5 g/ha, B.103 7.5 g/ha a.i.
[10] = I.1 62.5 g/ha, B.103 15 g/ha a.i.
[11] = I.1 15.6 g/ha, B.103 7.5 g/ha a.i.

C#CCOC(=O)[C@@H](C)Oc1ccc(Oc2ncc(Cl)cc2F)cc1 [B.2, clodinafop-propargyl]
pest or weed control at 7.5 g/ha (IPOHE; Ipomoea hederacea, post-emergence, 480 h, 7.5 g/ha a.i., read-out: herbicidal activity against IPOHE found): 10% | pest or weed control at 15 g/ha (IPOHE; Ipomoea hederacea, post-emergence, 480 h, 15 g/ha a.i., read-out: herbicidal activity against IPOHE found): 40% | pest or weed control at 7.5 g/ha (GALAP; Galium aparine, post-emergence, 480 h, 7.5 g/ha a.i., read-out: herbicidal activity against GALAP found): 0% | pest or weed control at 7.5 g/ha (GERDI; Geranium dissectum, post-emergence, 480 h, 7.5 g/ha a.i., read-out: herbicidal activity against GERDI found): 0% | pest or weed control at 15 g/ha (MATCH): 0% | pest or weed control at 15 g/ha (ALOMY; Alopecurus myosuroides, post-emergence, 480 h, 15 g/ha a.i., read-out: herbicidal activity against ALOMY found): 85% | herbicidal activity against STEME found (STEME; 7.5 g/ha a.i.): 0 | pest or weed control at 15 g/ha (ABUTH; Abutilon theophrasti, post-emergence, 480 h, 15 g/ha a.i., read-out: herbicidal activity against ABUTH found): 15%

CS(=O)(=O)NC(=O)c1cc(Oc2ccc(C(F)(F)F)cc2Cl)ccc1[N+](=O)[O-] [B.89, fomesafen]
herbicidal activity against ERICA found (ERICA; [1]): 20 | herbicidal activity against IPOHE found (IPOHE; [2]): 85 | herbicidal activity against IPOHE found (IPOHE; [3]): 85 | herbicidal activity against IPOHE found (IPOHE; [4]): 85 | herbicidal activity against IPOHE found (IPOHE; [1]): 85 | herbicidal activity against VIOAR found (VIOAR; [4]): 55 | herbicidal activity against GERDI found (GERDI; [2]): 25 | herbicidal activity against GERDI found (GERDI; [4]): 25 | herbicidal activity against GERDI found (GERDI; [1]): 25 | herbicidal activity against ALOMY found (ALOMY; [4]): 25 | herbicidal activity against POLCO found (POLCO; I.1 15.62 g/ha, B.89 12.5 g/ha a.i.): 95 | herbicidal activity against STEME found (STEME; [2]): 0 | herbicidal activity against STEME found (STEME; I.1 31.25 g/ha, B.89 12.5 g/ha a.i.): 0 | herbicidal activity against STEME found (STEME; [3]): 0 | herbicidal activity against ABUTH found (ABUTH; [3]): 90

CS(=O)(=O)c1cc(C(F)(F)F)ccc1C(=O)c1cnoc1C1CC1 [B.100, isoxaflutole]
herbicidal activity against AMBEL found (AMBEL; [5]): 45 | herbicidal activity against AMBEL found (AMBEL; [6]): 45 | herbicidal activity against ERICA found (ERICA; [5]): 80 | herbicidal activity against ERICA found (ERICA; [6]): 80 | herbicidal activity against VIOAR found (VIOAR; [6]): 70 | herbicidal activity against GERDI found (GERDI; [5]): 0 | herbicidal activity against GERDI found (GERDI; [6]): 0 | herbicidal activity against POLCO found (POLCO; [5]): 60

O=C(Nc1ccc(F)cc1)c1cccc(Oc2cccc(C(F)(F)F)c2)n1 [B.103, picolinafen]
herbicidal activity against ECHCG found (ECHCG): 20 | herbicidal activity against KCHSC found (KCHSC; [7]): 60 | herbicidal activity against KCHSC found (KCHSC; [8]): 60 | herbicidal activity against KCHSC found (KCHSC; [9]): 60 | herbicidal activity against KCHSC found (KCHSC; [10]): 60 | herbicidal activity against ERICA found (ERICA; [8]): 65 | herbicidal activity against ERICA found (ERICA; [9]): 25 | herbicidal activity against ERICA found (ERICA; [10]): 65 | herbicidal activity against IPOHE found (IPOHE; [11]): 40 | herbicidal activity against IPOHE found (IPOHE; [8]): 60 | herbicidal activity against GALAP found (GALAP; [9]): 70 | herbicidal activity against GERDI found (GERDI; [11]): 0 | herbicidal activity against GERDI found (GERDI; [7]): 0 | herbicidal activity against GERDI found (GERDI; [8]): 0 | herbicidal activity against GERDI found (GERDI; [9]): 0 | herbicidal activity against GERDI found (GERDI; [10]): 0 | herbicidal activity against POLCO found (POLCO; [11]): 40 | herbicidal activity against POLCO found (POLCO; [9]): 40 | herbicidal activity against POLCO found (POLCO; [10]): 70 | herbicidal activity against PAPRH found (PAPRH; I.1 15.62 g/ha): 70 | herbicidal activity against PAPRH found (PAPRH; I.1 31.25 g/ha): 70 | herbicidal activity against STEME found (STEME; I.1 15.62 g/ha, B.103 15 g/ha a.i.): 65

CCc1cccc(C)c1N(C(=O)CCl)[C@@H](C)COC [B.134, S-metolachlor]
herbicidal activity against AMBEL found (AMBEL; applied alone at 250 g/ha a.i.): 25 | herbicidal activity against AMBEL found (AMBEL; applied alone at 500 g/ha a.i.): 65 | herbicidal activity against KCHSC found (KCHSC; applied alone at 500 g/ha a.i.): 30 | herbicidal activity against ERICA found (ERICA; applied alone at 250 g/ha a.i.): 25 | herbicidal activity against ERICA found (ERICA; applied alone at 500 g/ha a.i.): 35 | herbicidal activity against GALAP found (GALAP; applied alone at 250 g/ha a.i.): 45 | herbicidal activity against VIOAR found (VIOAR; applied alone at 250 g/ha a.i.): 0 | herbicidal activity against VIOAR found (VIOAR; applied alone at 500 g/ha a.i.): 0 | herbicidal activity against GERDI found (GERDI; applied alone at 500 g/ha a.i.): 30 | herbicidal activity against ALOMY found (ALOMY; applied alone at 250 g/ha a.i.): 0 | herbicidal activity against ALOMY found (ALOMY; applied alone at 500 g/ha a.i.): 20 | herbicidal activity against POLCO found (POLCO; applied alone at 250 g/ha a.i.): 35 | herbicidal activity against POLCO found (POLCO; applied alone at 500 g/ha a.i.): 60 | herbicidal activity against ABUTH found (ABUTH; applied alone at 250 g/ha a.i.): 40

Nc1cc(Cl)nc(C(=O)O)c1Cl [B.144, aminopyralid]
herbicidal activity against AMBEL found (AMBEL; single active, 8 g/ha a.i.): 75 | herbicidal activity against KCHSC found (KCHSC; single active, 4 g/ha a.i.): 0 | herbicidal activity against KCHSC found (KCHSC; single active, 8 g/ha a.i.): 0 | herbicidal activity against VIOLA found (VIOAR; single active, 4 g/ha a.i.): 0 | herbicidal activity against POLCO found (POLCO; single active, 4 g/ha a.i.): 98 | herbicidal activity against POLCO found (POLCO; single active, 8 g/ha a.i.): 98 | herbicidal activity against ABUTH found (ABUTH; single active, 4 g/ha a.i.): 0 | herbicidal activity against APESV found (APESV): 0
